Measurements as given in patent US20200222400A1, “METHODS FOR THE TREATMENT OF NEUROLOGICAL DISORDERS” (Yumanity Therapeutics, Inc., priority 2019, published 2020).

Target: T1, human SCD1 (Homo sapiens, UniProt O00767)
T1 construct: host or cells: S. cerevisiae ole1Δ strain (W303 pdr1Δ pdr3Δ background), pRS316 plasmid, TDH3 promoter
T1 sequence (O00767 1-359): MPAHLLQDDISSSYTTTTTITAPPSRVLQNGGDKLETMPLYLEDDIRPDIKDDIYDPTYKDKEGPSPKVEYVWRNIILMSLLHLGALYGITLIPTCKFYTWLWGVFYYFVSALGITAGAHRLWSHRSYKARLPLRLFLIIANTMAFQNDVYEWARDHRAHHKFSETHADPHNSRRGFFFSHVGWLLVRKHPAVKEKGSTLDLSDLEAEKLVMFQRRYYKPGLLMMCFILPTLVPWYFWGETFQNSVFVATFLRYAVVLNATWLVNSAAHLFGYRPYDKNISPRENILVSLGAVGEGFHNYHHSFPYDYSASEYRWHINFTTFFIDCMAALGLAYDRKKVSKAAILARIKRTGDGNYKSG
Experiment: Growth of humanized yeast expressing human SCD1 as sole desaturase
Assay type: cell-based, humanized yeastized yeastized yeastized yeast
Conditions: yeast growth
Protocol: The coding sequence of yeast OLE1 was also cloned into this plasmid). These clones were then transformed into the ole1Δ strain and plated on CSM-Ura media (CSM lacking uracil) with 2% glucose (w/v) and independent colonies were isolated and amplified.
All compound profiling experiments were performed using the same basic protocol. Different genetic backgrounds (e.g., gene deletions) or conditions (e.g., addition of oleic and palmitoleic acid) were replaced as indicated below.
Compound administration was performed in two separate steps. First, 15 μL of CSM-Galactose (induces expression of toxic protein) was dispensed into clear 384 well assay plates using a MULTIDROP™ Combi reagent dispenser. […] The cultures described above were then diluted to a 2× concentration (0.03 and 0.08 for alpha-synuclein and ApoE, final OD600 of 0.015 and 0.04) in CSM-Galactose. For wild-type and Ole1/SCD1/SCD5 plasmid-containing strains, the 2× cell density was 0.02.
For experiments using a plasmid-borne copy of Ole1, SCD1, or SCD5 (FIGS. 4B, 7, and 8), media lacking uracil (SX-Ura, where X is glucose, raffinose, or galactose), was used for all steps of the compound profiling protocol to ensure its maintenance throughout the assay.
After yeast delivery, assay plates were incubated under humidified conditions at 30° C. for 24 to 40 h. ApoE4 rescue experiments were stopped at 24 h, aSyn experiments at 40 h, Ole1 at 24 h, and SCD1/SCD5 at 40 h. The growth of yeast was monitored by reading the OD600 of each well using a microplate reader (Perkin Elmer EnVision™).

## Cc1nnc(-c2ccc(N3CCC(Oc4cc(F)ccc4Cl)CC3)nn2)o1 [CAY10566]
  half-maximal inhibitory concentration (IC50), SCD1 humanized strain: low nanomolar
